These results are taken from publication PMC7594867 (Journal of Enzyme Inhibition and Medicinal Chemistry, 2020).

Test [1] concerns the target CDK-2 (Homo sapiens, UniProt P24941). The test can be described thus: CDK-2 inhibition, ADP-Glo kinase assay. The test is classed as biochemical. On the technique in general: ADP-Glo first removes unused ATP, then detects ADP through luciferase.
The subject of test [2] is MCF-7. The test can be described thus: MTT cytotoxicity assay, MCF-7. The test is classed as cell-based. Background: Tetrazolium dyes change colour on reduction, which living cells bring about.
The subject of test [3] is A2780. The test can be described thus: MTT cytotoxicity assay, A2780. The test is classed as cell-based.
Test [4] relates to MCF-7 cells. Put plainly: Annexin V-FITC/PI staining apoptosis assay. Particulars: MCF-7, 24 h, control 0%. The test is classed as cell-based.
In test [5] the test system is normal human foetal lung fibroblast (MRC-5). The test can be described thus: MTT cytotoxicity assay, normal MRC-5 cells. The test is classed as cell-based. The conditions noted are these: MRC5, 72 h, read-out: IC50 (µM ± SD) MRC-5.
Test [6] concerns MCF-7 cells. Put plainly: Cell cycle analysis. The test is classed as cell-based.
For test [7], the system named is HT29. Put plainly: MTT cytotoxicity assay, HT29. The test is classed as cell-based.
Test [8] concerns MCF-7, A2780, and HT29 cell lines. Put plainly: MTT cytotoxicity assay, three cancer cell lines taken together. Particulars: read-out: Average IC50. The test is classed as cell-based.

On to `N#Cc1c(NC(=S)Nc2cccc3ccccc23)c(C(=O)Nc2ccccc2)n2c1CCC2` [Compound 20a, 7-Cyano-6-(3-(naphthalen-1-yl)thioureido)-N-phenyl-2,3-dihydro-1H-pyrrolizine-5-carboxamide], for which the IC50 (usually the concentration that inhibits the measured activity by half) in test [1] stood at 77.9 ± 2.2 nM; in test [2] (Homo sapiens, MCF7, 72 h, read-out: IC50 ± SD, MCF-7), 420 ± 150 nM; in test [3] (Homo sapiens, A2780, 72 h, read-out: IC50 ± SD, A2780), 160 ± 10 nM; in test [5], 0.43 ± 0.13 µM; in test [7] (Homo sapiens, HT-29, 72 h, read-out: IC50 ± SD, HT29), 720 ± 120 nM; in test [8], 430 nM. In test [2] (IC50 MRC-5 / IC50 MCF-7), the “Selectivity index, MCF-7” value was found to be 1.02. The “Selectivity index, A2780” value in test [3] (IC50 MRC-5 / IC50 A2780) was found to be 2.69. The apoptotic events in test [4] (1 µM) is 38%; in test [4] (5 µM), 39%; in test [4] (10 µM) it was 47%. Moreover, the “effect on cell cycle” value in test [6] (MCF-7, 24 h, 1, 5, 10 µM) is “G1 -S cell cycle arrest”. Moreover, the “number of cells in the G1 cell-cycle phase” value in test [6] (MCF-7, 24 h, highest increase, concentration not given) is 57%. Moreover, in test [7] (IC50 MRC-5 / IC50 HT29), the “Selectivity index, HT29” value is on record as 0.60.
